# Test results as given in US4226610A, “Herbicidal compounds, preparation thereof and herbicides containing the same” (Meiji Selka Kaisha, Ltd., priority 1978, dated 1980).
# Columns and labels:
# manna grass = assay: Experiment 1 foliar application to naturally growing weeds; assay type: in vivo, Digitaria adsceudes Henr.; details: 2 months
# Procedure, shortened: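 Dilute compounds to prescribed concentrations; add 0.1% octylphenyl polyoxyethanol; spray foliage of in-situ weeds at 150 liter per 10 are. Score killing 0–5 on day 21. Score reproduction (-) to (+++) at month 2 (cockspar grass) or month 4 (chigaya, azumanezasa, warunasubi).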
# lace shrub = assay: Experiment 3 foliar application to naturally growing shrubs; assay type: in vivo, Stephanandra incisa Zabel; details: after 3 months
# Procedure, shortened: (§1)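 Naturally growing shrubs were sprayed on the foliage at 150 liter per 10 are. Plant kill was then scored from 0 to 5 at 1 and 3 months, and reproduction was graded − to +++ at 3 months.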
# yabugarashi = assay: Experiment 1 foliar application to naturally growing weeds; assay type: in vivo, Cayratia japonica Houtt.; details: 4 months
# Procedure, shortened: (§2)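 Naturally growing weeds receive a foliar spray of compound at prescribed concentrations, 150 liter per 10 are, containing 0.1% octylphenyl polyoxyethanol. Kill is rated 0 (no effect) to 5 (death) after 21 days. Regrowth is rated (-) to (+++) after 4 months, or 2 months for cockspar grass.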
# stonewort = assay: Experiment 7 application to water; assay type: in vivo, Chara Braunii Gmel.; parameters: scale not given here
# Source text: (§3) A black soil was packed in 50 cm. square concrete pots and water was poured there-onto at 50 cm. in depth. Hornwort (Ceratophyllum demersum L.), stonewort (Chara Braunii Gmel.) and salvinia (Salvinia natans All.) were transplanted and pond scum (Spirogira crassa Kutz) and diatoms (Bacillariophyta) were floated in the water.
# (§4) Then, the compounds of the invention were applied dropwise onto the surface of the water so that the prescribed concentrations in the water are obtained as indicated in Table 9.
# torch azalea = assay: Experiment 3 foliar application to naturally growing shrubs; assay type: in vivo, Rhododendoron Kaempferi Planch.; details: after 3 months
# Procedure, shortened: as §1
# Japanese bush cranberry = assay: as above; assay type: in vivo, Viburnum dilatatum Thunb.; details: after 3 months
# Procedure, shortened: as §1
# warunasubi = assay: Experiment 1 foliar application to naturally growing weeds; assay type: in vivo, Solanum carolinensis L.; details: for Reproduction-inhibiting effect: 4 months
# Procedure, shortened: as §2
# purple nutsedge = assay: as above; assay type: in vivo, Cyperus rotundus L.; details: 4 months
# Procedure, shortened: as §2
# white clover = assay: as above; assay type: in vivo, Trifolium repens L.; details: for Reproduction-inhibiting effect: 4 months
# Procedure, shortened: as §2
# kiichigo = assay: Experiment 3 foliar application to naturally growing shrubs; assay type: in vivo, Rubus palmatsu Thunb. forma coptophyllus Makino; details: after 3 months
# Procedure, shortened: as §1
# Japanese prickly ash = assay: as above; assay type: in vivo, Xanthoxylum piperitum DC.; details: after 3 months
# Procedure, shortened: as §1
# salvinia = assay: Experiment 7 application to water; assay type: in vivo, Salvinia natans Allioni; parameters: scale not given here
# Source text: as §3, §4
# pond scum = assay: Experiment 7 application to water; assay type: in vivo, Spirogira crassa Kutz.; parameters: scale not given here
# Source text: as §3, §4
# chigaya = assay: Experiment 1 foliar application to naturally growing weeds; assay type: in vivo, Imperata cylindrica Beauv.; details: for Reproduction-inhibiting effect: 4 months
# Procedure, shortened: as §2
# omodaka = assay: Experiment 6 spray on aquatic plants in concrete pots; assay type: in vivo, Sagittaria trifolia L.; details: for Reproduction-inhibiting effect: 3 months
# Source text: The detail of the assessment made in the following Experiments of the invention was as follows:
# Four months after treatment, evaluation was made for inhibition of reproduction expressed in terms of symbols ranging from (-) to (+++) where (-) means no reproduction, namely complete suppression of reproduction, (±) remarkable suppression of reproduction; (+) considerable suppression of reproduction; (++) medium supprestion of reproduction; and (+++) no suppression of reproduction.
# A paddy field soil was packed in 50 cm. square concrete pots. omodaka (Sagittaria trifolia L.), urikawa (Sagittaria pygmaea Miq.), prog-bit (Hydrocharis dubia) and aginashi (Sagittaria Aginashi Makino) were transplanted; then water was poured onto the soil at 5 cm. depth.
# Further, water hyacinth, greater-duckweed (Spirodela polyrhiza Schleid.) and duckweed (Lemna paucicostata Hegelm) were floated on the water.
# After one month, the compounds of the invention diluted to the prescribed concentrations as indicated in Table 8 were sprayed in an amount of 100 liter per 10 are. As a surfactant, 0.1% of octylphenyl polyoxyethanol was added thereto.
# The killing index (0, no effect; 5, death) after 21 days and 3 months and the reproduction-inhibiting effect (-, no reproduction; +++, maximum reproduction) after 3 months were determined.
# eulalia = assay: Experiment 2 foliar application in Japanese cypress afforested land; assay type: in vivo, Miscanthus sinensis Andress.; parameters: key: 0 = no effect, 5 = death; details: 0.125%; after 3 months
# Procedure, shortened: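 Field foliar spray on shrubs in Japanese cypress afforested land at 150 liter per 10 are, with compounds at prescribed concentrations. Killing index scored from 0 (no effect) to 5 (death) at 30 days and 3 months. Plant heights ranged from about 50 to 100 cm.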
# hornwort = assay: Experiment 7 application to water; assay type: in vivo, Ceratophyllum demersum L.; parameters: scale not given here
# Source text: as §3, §4
smiles,measurement,setting,value
CP(=O)(O)CCC(N)C(=O)O (racemic) [DL-AMPB choline],Reproduction-inhibiting effect,manna grass; 0.05%,++
same,Reproduction-inhibiting effect,manna grass; 0.1%,±
same,Reproduction-inhibiting effect,manna grass; 0.2%,-
same,Reproduction-inhibiting,lace shrub; 0.05%,++
same,Reproduction-inhibiting,lace shrub; 0.1%,-
same,Reproduction-inhibiting,lace shrub; 0.2%,-
same,Reproduction-inhibiting effect,yabugarashi; 0.05%,++
same,Reproduction-inhibiting effect,yabugarashi; 0.1%,±
same,Reproduction-inhibiting effect,yabugarashi; 0.2%,-
same,controlling effect,"stonewort; 1 ppm, 3 months",1
same,controlling effect,"stonewort; 1 ppm, 21 days",3
same,controlling effect,"stonewort; 3 ppm, 3 months",5
same,controlling effect,"stonewort; 3 ppm, 21 days",4.5
same,controlling effect,"stonewort; 10 ppm, 3 months",5
same,controlling effect,"stonewort; 10 ppm, 21 days",5
same,Reproduction-inhibiting,torch azalea; 0.05%,++
same,Reproduction-inhibiting,torch azalea; 0.1%,-
same,Reproduction-inhibiting,torch azalea; 0.2%,-
same,Reproduction-inhibiting,Japanese bush cranberry; 0.05%,+++
same,Reproduction-inhibiting,Japanese bush cranberry; 0.1%,++
same,Reproduction-inhibiting,Japanese bush cranberry; 0.2%,+
same,Reproduction-inhibiting effect,warunasubi; 0.05%,++
same,Reproduction-inhibiting effect,warunasubi; 0.1%,±
same,Killing index of Upperground parts,"warunasubi; 0.1%, 21 days",4.5
same,Reproduction-inhibiting effect,warunasubi; 0.2%,-
same,Reproduction-inhibiting effect,purple nutsedge; 0.05%,++
same,Reproduction-inhibiting effect,purple nutsedge; 0.1%,+
same,Reproduction-inhibiting effect,purple nutsedge; 0.2%,±
same,Reproduction-inhibiting effect,white clover; 0.05%,++
same,Killing index of Upperground parts,"white clover; 0.05%, 21 days",1.5
same,Reproduction-inhibiting effect,white clover; 0.1%,±
same,Reproduction-inhibiting effect,white clover; 0.2%,-
same,Reproduction-inhibiting,kiichigo; 0.05%,+
same,Killing index,kiichigo; 0.1%,4.5
same,Reproduction-inhibiting,kiichigo; 0.1%,±
same,Reproduction-inhibiting,kiichigo; 0.2%,-
same,Reproduction-inhibiting,Japanese prickly ash; 0.05%,++
same,Reproduction-inhibiting,Japanese prickly ash; 0.1%,+
same,Reproduction-inhibiting,Japanese prickly ash; 0.2%,-
same,controlling effect,"salvinia; 1 ppm, 3 months",2
same,controlling effect,"salvinia; 1 ppm, 21 days",3
same,controlling effect,"salvinia; 3 ppm, 3 months",5
same,controlling effect,"salvinia; 3 ppm, 21 days",4
same,controlling effect,"salvinia; 10 ppm, 3 months",5
same,controlling effect,"salvinia; 10 ppm, 21 days",5
same,controlling effect,"pond scum; 1 ppm, 3 months",1
same,controlling effect,"pond scum; 1 ppm, 21 days",2
same,controlling effect,"pond scum; 3 ppm, 3 months",5
same,controlling effect,"pond scum; 3 ppm, 21 days",4
same,controlling effect,"pond scum; 10 ppm, 3 months",5
same,controlling effect,"pond scum; 10 ppm, 21 days",5
same,Reproduction-inhibiting effect,chigaya; 0.05%,++
same,Reproduction-inhibiting effect,chigaya; 0.1%,-
same,Killing index of Upperground parts,"chigaya; 0.1%, 21 days",4.5
same,Reproduction-inhibiting effect,chigaya; 0.2%,-
same,Reproduction-inhibiting effect,omodaka; 0.05%,++
same,Reproduction-inhibiting effect,omodaka; 0.1%,±
same,Reproduction-inhibiting effect,omodaka; 0.2%,-
same,Killing index,"omodaka; 0.2%, 21 days",4.5
same,Killing index,eulalia,4.5
same,controlling effect,"hornwort; 1 ppm, 3 months",1
same,controlling effect,"hornwort; 1 ppm, 21 days",2
same,controlling effect,"hornwort; 3 ppm, 3 months",5
same,controlling effect,"hornwort; 3 ppm, 21 days",4.5
same,controlling effect,"hornwort; 10 ppm, 3 months",5
same,controlling effect,"hornwort; 10 ppm, 21 days",5
